From patent US20230392118A1, “GENERATION OF CD4+ EFFECTOR AND REGULATORY T CELLS FROM HUMAN PLURIPOTENT STEM CELLS” (Sangamo Therapeutics, Inc., priority 2020, published 2023)

Test system: dox-inducible GFP expression cassette
Experiment: Dox-inducible GFP expression cassette integrated into AAVS1 locus of iPSCs
Format: cell-based, human
Experimental: This Example describes an experiment in which a green fluorescent protein expression cassette was integrated into the AAVS1 gene locus as illustrated in FIG. 21. AAVS1 ZFN mRNA and donor plasmid were delivered into iPSCs via electroporation on Day −7. One week later (Day 0), puromycin was added (0.3 μg/mL) to the tissue culture to begin positive selection for cells having undergone targeted integration. Doxycycline was added at Day 15 and maintained in culture at 3 different doses (0.3, 1, and 3 μg/mL) to induce expression of the dox-inducible GFP expression cassette. […] Cells were maintained in the presence of doxycycline for 13 days. During this period, the 3 μg/mL dose of doxycycline yielded the highest level of inducible GFP transgene expression (94%; FIG. 22). This high level of expression was sustained while doxycycline was present in culture. Cells were maintained in puromycin as well as doxycycline from Day 15-28 and were further positively selected (increase from ˜50% to ˜70% of alleles with targeted integration).

SMILES | Inducible GFP transgene expression (3 μg/mL doxycycline, iPSCs, maintained 13 days) | Alleles with targeted integration after positive selection (puromycin as well as doxycycline, Day 15-28, increase from ~50%)
C[C@H]1c2cccc(O)c2C(=O)C2=C(O)[C@]3(O)C(=O)C(C(N)=O)=C(O)[C@@H](N(C)C)[C@@H]3[C@@H](O)[C@@H]21 [doxycycline] | 94% | 
COc1ccc(C[C@H](N)C(=O)N[C@H]2[C@@H](O)[C@H](n3cnc4c(N(C)C)ncnc43)O[C@@H]2CO)cc1 [puromycin] |  | ~70%
